The values that follow come from US20240209027A1, “PEPTIDE AND PEPTIDE-CONTAINING COMPOSITION” (PeptiAID Inc.,, priority 2021, published 2024).

In series [1] the test system is SARS-CoV-2 (JPN/TY/WK-521 strain). Format: cell-based. Further details: key: the case where the peptide was found to have anti-SARS-CoV-2 activity when added at 50 nM was designated as “2”; the case where no activity was found upon the addition at 50 nM but the activity was found at 1 μM was designated as “1”. Conditions: peptide added at 50 nM or 1 μM.
Series [2] concerns SARS-CoV2 (USA WA1/2020 strain). Conditions: 72 h.
The next series in a line: in vitro. Conditions: African green monkey.

Read-outs that look alike come from different tables or passages of the source. Starred links: 1 amine or outer side, 2 acyl side, 3 side chain; linkers in the order of their positions; H or OH if unused. Positions of bridges follow the written chain, without caps; N, C: chain ends. Non-standard residues stand in square brackets, D forms with d. Residues, ends and D or L forms follow the SMILES beside them. *: point of attachment. X5 = O=C(O)CCCCCCCCCCCCC(=O)N[C@@H](CCC(=O)N[C@@H](CCCCN*)C(=O)O)C(=O)O; X4 = O=C(O)CCCCCCCCCCC(=O)N[C@@H](CCC(=O)N[C@@H](CCCCN*)C(=O)O)C(=O)O; Ala(piperidin-4-yl) = O=C([C@H](CC1CCN([*:3])CC1)N[*:1])[*:2]; Phe(4-COOH) = N[C@@H](Cc1ccc(C(=O)O)cc1)C(=O)O; X3 = O=C(O)CN1CCC(N[*:1])(C(=O)[*:2])CC1; Phe(4-F) = N[C@@H](Cc1ccc(F)cc1)C(=O)O; NMeF = CN[C@@H](Cc1ccccc1)C(=O)O; NMeE = CN[C@@H](CCC(=O)O)C(=O)O; Cha = N[C@@H](CC1CCCCC1)C(=O)O; Cit = NC(=O)NCCC[C@H](N)C(=O)O; NMeNle = CCCC[C@H](NC)C(=O)O; Aib = CC(C)(N)C(=O)O

In the case of `CCCC[C@H]1C(=O)NC(C)(C)C(=O)N[C@@H](CC2CCCCC2)C(=O)N[C@@H](Cc2ccc(F)cc2)C(=O)N[C@H](CC(=O)O)C(=O)N[C@@H](Cc2ccc(O)cc2)C(=O)N[C@@H](Cc2ccc(O)cc2)C(=O)N[C@@H](Cc2ccc(C(=O)O)cc2)C(=O)N[C@H](CCCNC(=N)N)C(=O)N[C@@H](CC2CCCCC2)C(=O)N[C@H](C(N)=O)CSCC(=O)N(C)[C@@H](CCC(=O)O)C(=O)N1C` [Peptide 5555_p003] ({CH2CO}-[NMeE][NMeNle][Aib][Cha][Phe(4-F)][dD]YY[Phe(4-COOH)][dR][Cha]C-NH2; thioether N-12), in series [1], the Anti-SARS-CoV-2 activity came to 2. Besides, in series [2], the IC50 was 4.5 nM. Moreover, the CC50 at 72 h in “in vitro” was more than 100000 nM.
In series [2], `CCCC[C@H]1C(=O)NC(C)(C)C(=O)N[C@@H](CC2CCCCC2)C(=O)N[C@@H](Cc2ccc(F)cc2)C(=O)N(C)[C@@H](CCC(=O)O)C(=O)N[C@@H](Cc2ccc(O)cc2)C(=O)N[C@@H](Cc2ccc(O)cc2)C(=O)N[C@@H](Cc2ccc(C(=O)O)cc2)C(=O)N[C@H](CCCNC(=N)N)C(=O)N[C@@H](CC2CCCCC2)C(=O)N[C@H](C(N)=O)CSCC(=O)N(C)[C@@H](CCC(=O)O)C(=O)N1C` [Peptide 5555_p005] ({CH2CO}-[NMeE][NMeNle][Aib][Cha][Phe(4-F)][NMeE]YY[Phe(4-COOH)][dR][Cha]C-NH2; thioether N-12) gave a half-inhibitory concentration (IC50) of 5 nM. This compound also showed a CC50 at 72 h in the series “in vitro” of more than 100000 nM.
`CCCC[C@H]1C(=O)NC(C)(C)C(=O)N[C@@H](CC2CCCCC2)C(=O)N[C@@H](Cc2ccc(F)cc2)C(=O)N[C@H](CC(=O)O)C(=O)N[C@@H](Cc2ccc(O)cc2)C(=O)N[C@@H](Cc2ccc(O)cc2)C(=O)N[C@@H](Cc2ccc(C(=O)O)cc2)C(=O)N[C@@H](CC2CCNCC2)C(=O)N[C@@H](CC2CCCCC2)C(=O)N[C@H](C(=O)N[C@H](CCC(=O)O)C(N)=O)CSCC(=O)N(C)[C@@H](CCC(=O)O)C(=O)N1C` [Peptide 5555_p026] ({CH2CO}-[NMeE][NMeNle][Aib][Cha][Phe(4-F)][dD]YY[Phe(4-COOH)][Ala(piperidin-4-yl)][Cha]C[dE]-NH2; thioether N-12) gave an Anti-SARS-CoV-2 activity in series [1] of 2. The compound further showed an IC50 in series [2] of 8.1 nM.
`CCCC[C@H]1C(=O)NC(C)(C)C(=O)N[C@@H](CC2CCCCC2)C(=O)N[C@@H](Cc2ccc(F)cc2)C(=O)N(C)[C@@H](CCC(=O)O)C(=O)N[C@@H](Cc2ccc(O)cc2)C(=O)N[C@@H](Cc2ccc(O)cc2)C(=O)N[C@@H](Cc2ccc(C(=O)O)cc2)C(=O)N[C@H](CCCNC(=N)N)C(=O)N[C@@H](CC2CCCCC2)C(=O)N[C@H](C(=O)N[C@H](CCC(=O)O)C(N)=O)CSCC(=O)N(C)[C@@H](CCC(=O)O)C(=O)N1C` [Peptide 5555_p039] ({CH2CO}-[NMeE][NMeNle][Aib][Cha][Phe(4-F)][NMeE]YY[Phe(4-COOH)][dR][Cha]C[dE]-NH2; thioether N-12) gave a half-inhibitory concentration (IC50) in series [2] of 7.4 nM. For the same compound, in the series “in vitro”, the CC50 at 72 h was more than 100000 nM.
For `CN1C(=O)CSC[C@@H](C(=O)N[C@H](CCC(=O)O)C(N)=O)NC(=O)[C@H](CC2CCCCC2)NC(=O)[C@H](CCCCN)NC(=O)[C@H](Cc2ccc(C(=O)O)cc2)NC(=O)[C@H](Cc2ccc(O)cc2)NC(=O)[C@H](Cc2ccc(O)cc2)NC(=O)[C@H](CCC(=O)O)N(C)C(=O)[C@H](Cc2ccc(F)cc2)NC(=O)[C@H](CC2CCCCC2)NC(=O)[C@H](CO)NC(=O)[C@H](Cc2ccccc2)N(C)C(=O)[C@@H]1CCC(=O)O` [Peptide 5555_p088] ({CH2CO}-[NMeE][NMeF]S[Cha][Phe(4-F)][NMeE]YY[Phe(4-COOH)]K[Cha]C[dE]-NH2; thioether N-12), in that order: 11.4 nM and more than 100000 nM.
For the compound `CN1C(=O)CSC[C@@H](C(=O)N[C@H](CCC(=O)O)C(N)=O)NC(=O)[C@H](CC2CCCCC2)NC(=O)[C@H](CCCCN)NC(=O)[C@H](CCCNC(N)=O)NC(=O)[C@H](Cc2ccc(O)cc2)NC(=O)[C@H](Cc2ccc(O)cc2)NC(=O)[C@H](CCC(=O)O)N(C)C(=O)[C@H](Cc2ccc(F)cc2)NC(=O)[C@H](CC2CCCCC2)NC(=O)[C@H](CO)NC(=O)[C@H](Cc2ccccc2)N(C)C(=O)[C@@H]1CCC(=O)O` [Peptide 5555_p092] ({CH2CO}-[NMeE][NMeF]S[Cha][Phe(4-F)][NMeE]YY[Cit]K[Cha]C[dE]-NH2; thioether N-12), in series [1] (VeroE6/TMPRSS2 cells, JPN/TY/WK-521 strain, 24 hours), the Anti-SARS-CoV-2 activity is on record as 2. Moreover, the IC50 in series [2] came out at 4.1 nM. The compound also came in with a CC50 at 72 h in “in vitro” of more than 100000 nM.
Consider `CN1C(=O)CSC[C@@H](C(=O)N[C@H](CCC(=O)O)C(=O)O)NC(=O)[C@H](CC2CCCCC2)NC(=O)[C@H](CC2CCNCC2)NC(=O)[C@H](Cc2ccc(C(=O)O)cc2)NC(=O)[C@H](Cc2ccc(O)cc2)NC(=O)[C@H](Cc2ccc(O)cc2)NC(=O)[C@H](CCC(=O)O)N(C)C(=O)[C@H](Cc2ccc(F)cc2)NC(=O)[C@H](CC2CCCCC2)NC(=O)C(C)(C)NC(=O)[C@H](Cc2ccccc2)N(C)C(=O)[C@@H]1CCC(=O)O` [Peptide 5555_p119] ({CH2CO}-[NMeE][NMeF][Aib][Cha][Phe(4-F)][NMeE]YY[Phe(4-COOH)][Ala(piperidin-4-yl)][Cha]C[dE]-OH; thioether N-12), for which, in series [2], half-maximal inhibition (IC50) required 18.2 nM. Also, in the series “in vitro”, the CC50 at 72 h is more than 100000 nM.
With `CCCC[C@H]1C(=O)NC(C)(C)C(=O)N[C@@H](CC2CCCCC2)C(=O)N[C@@H](Cc2ccc(F)cc2)C(=O)NC2(CCN(CC(=O)O)CC2)C(=O)N[C@@H](Cc2ccc(O)cc2)C(=O)N[C@@H](Cc2ccc(O)cc2)C(=O)N[C@@H](Cc2ccc(C(=O)O)cc2)C(=O)N[C@@H](CC2CCNCC2)C(=O)N[C@@H](CC2CCCCC2)C(=O)N[C@H](C(=O)N[C@H](CCC(=O)O)C(N)=O)CSCC(=O)N(C)[C@@H](CCC(=O)O)C(=O)N1C` [Peptide 5555_p173] ({CH2CO}-[NMeE][NMeNle][Aib][Cha][Phe(4-F)][X3]YY[Phe(4-COOH)][Ala(piperidin-4-yl)][Cha]C[dE]-NH2; thioether N-12), 6.8 nM corresponded to half-maximal inhibition with SARS-CoV-2 Wuhan strain (IC50).
As to `CCCC[C@H]1C(=O)NC(C)(C)C(=O)N[C@@H](CC2CCCCC2)C(=O)N[C@@H](Cc2ccc(F)cc2)C(=O)N[C@H](CC(=O)O)C(=O)N[C@@H](Cc2ccc(O)cc2)C(=O)N[C@@H](Cc2ccc(O)cc2)C(=O)N[C@@H](CCCNC(N)=O)C(=O)N[C@H](CCCCN)C(=O)N[C@@H](CC2CCCCC2)C(=O)N[C@H](C(=O)N[C@H](CCC(=O)O)C(=O)NCCCC[C@H](NC(=O)CC[C@H](NC(=O)CCCCCCCCCCC(=O)O)C(=O)O)C(=O)O)CSCC(=O)N(C)[C@@H](CCC(=O)O)C(=O)N1C` [Peptide 5555_p234] ({CH2CO}-[NMeE][NMeNle][Aib][Cha][Phe(4-F)][dD]YY[Cit][dK][Cha]C[dE]-X4; thioether N-12), the IC50 in the series with SARS-CoV-2 Delta strain is 42 nM.
Consider `CCCC[C@H]1C(=O)NC(C)(C)C(=O)N[C@@H](CC2CCCCC2)C(=O)N[C@@H](Cc2ccc(F)cc2)C(=O)N[C@H](CC(=O)O)C(=O)N[C@@H](Cc2ccc(O)cc2)C(=O)N[C@@H](Cc2ccc(O)cc2)C(=O)N[C@@H](CCCNC(N)=O)C(=O)N[C@H](CCCCN)C(=O)N[C@@H](CC2CCCCC2)C(=O)N[C@H](C(=O)N[C@H](CCC(=O)O)C(=O)NCCCC[C@H](NC(=O)CC[C@H](NC(=O)CCCCCCCCCCCCC(=O)O)C(=O)O)C(=O)O)CSCC(=O)N(C)[C@@H](CCC(=O)O)C(=O)N1C` [Peptide 5555_p235] ({CH2CO}-[NMeE][NMeNle][Aib][Cha][Phe(4-F)][dD]YY[Cit][dK][Cha]C[dE]-X5; thioether N-12), for which half-maximal inhibition in the series with SARS-CoV-2 Delta strain (IC50) was put at 57 nM.
